How the values were obtained:
Pseudomonas aeruginosa = assay: Toxin production by P. aeruginosa (Example 4, FIG. 42); type: cell-based; settings: read-out: EC50 of inhibition of toxin production
RelA enzyme [1] = target: T1, RelA enzyme (Escherichia coli, UniProt P0AG20); assay: Semi-HTS and IC50, in vitro RelA ppGpp production assay ([α-32P]GTP); type: biochemical, E. coli; settings: for IC50: concentration gradient, in vitro radio isotope assay
Protocol: The next step of the semi-HTS was to run the 40 in silico determined compounds in an in vitro RelA assay at a relatively high concentration of 200 μM, to test if there is any effect on RelA ppGpp production using the α-32P-GTP radio isotope in vitro assay. […] From this assay, two compounds were picked to go into later assays (C14 [4.2%], C22 [13.4%]).
The follow-up assay to the semi-HTS is determination of in vitro half-maximal inhibitory concentration (IC50). In vitro IC50 is completed by a concentration gradient run on the in vitro radio isotope assay (FIG. 29B). […] C14 was originally purchased from Enamine®; however, it was later synthesized in-house as more was needed than could be purchased.
RelA enzyme was purified as described in Example 2.

P. aeruginosa PA14 [2] = system: P. aeruginosa PA14
Protocol: P. aeruginosa PA14 was grown overnight in LB Miller broth at 37° C. with shaking (250 rpm). […] This was then grown for 18 h at 37° C. Cells were pelleted by centrifugation. One milliliter of supernatant was collected, and 1 mL of chloroform was added to the supernatant. Layers were separated and OD690 was taken for chloroform layer (blue). OD690 was normalized to culture cell density OD600.

P. aeruginosa PA01 = assay: Biofilm formation in P. aeruginosa PA01; type: cell-based; settings: results not shown
Protocol: (§1) Biofilm Inhibition Assays: For biofilm formation on polystyrene surfaces, flat-bottom 96-well microtiter plates (Corning Inc.) were used. […] The biofilm mass was measured by the CV staining assay described elsewhere herein.

E. coli C [3] = assay: E. coli C aggregation assay; settings: high salt, low temperature, amino acid starvation
Protocol: E. coli C was grown in LB Miller broth at 30° C. with shaking (250 rpm) with or without compounds. E. coli C ΔrelA mutant was also grown as a control. One milliliter of the culture was transferred to standard polypropylene spectrophotometer cuvettes to measure planktonic cells densities (OD600). Remaining cultures were vortexed ˜1 min and 1 mL was aliquoted into cuvettes to measure the total cell densities (OD600). Aggregation was calculated as a ratio of planktonic to total cell density.

P. aeruginosa PA14 [4] = assay: Biofilm formation in P. aeruginosa PA14; type: cell-based
Protocol: as §1

E. coli C biofilm [5] = assay: Biofilm inhibition assay (crystal violet); type: cell-based; settings: results not shown
Protocol: Studies were conducted in 96-well high-throughput assays. In the biofilm inhibition assay, compounds were added to the wells at the beginning of the experiment. For the biofilm dispersal assay, the biofilm was allowed to grow for 24 and 48 h, the wells were washed with sterile phosphate-buffered saline (PBS), and fresh medium supplemented with the compounds was added to the wells. The amount of biofilm was measured after 24 h.
as §1

E. coli C biofilm [6] = assay: Synergistic effects of compounds and ampicillin on biofilm biomass (crystal violet); type: cell-based; settings: versus antibiotic-only control; for reduction of biofilm biomass at Amp40: ampicillin 40 μg·mL−1, S3-G1A and S3-G1B 50 μM, IDR1018 5 μM; for reduction in biofilm biomass at Amp50: ampicillin 50 μg·mL−1
Protocol: Biofilm Dispersal Assays: For biofilm formation on polystyrene surfaces, flat-bottom 96-well microtiter plates (Corning Inc.) were used. […] These were allowed to grow for 24 h. The planktonic cells and medium were then aspirated, and the plates were washed twice with 1×PBS. Fresh LB with hit compounds were added to the biofilm wells. These cultures were then allowed to incubate at 37° C. overnight. Cell density were measured (OD600) using a Multiscan Go plate reader (ThermoFisher), and 30 μL Gram crystal violet (CV) (Remel; 3 g crystal violet, 50 mL isopropanol, 50 mL ethanol, 900 mL purified water) was applied for staining for 1 h. Plates were washed with water and air dried, and CV was solubilized with an ethanol:acetone (4:1) solution. The OD570 was determined from this solution, and the biofilm volume was calculated as the ratio of OD570 to OD600. Synergistic Effects of Compounds and Antibiotics: Biofilms were grown for 24, 48, or 72 h as described elsewhere herein. Planktonic cells were then removed, and biofilms were washed twice with 250 μL sterile PBS solution. Two hundred microliter aliquots of fresh LB medium with multiple concentrations of the tested compounds and ampicillin were dispensed into the wells. After 18 h of incubation at 37° C., the biofilm mass was measured as described elsewhere herein. For the AlamarBlue viability test, 4 μL of AlamarBlue (Invitrogen) was added and plates were incubated in a Biotek HT plate reader at 37° C. for 4 h. Cell viability was measured as fluorescence at 530/590 nm (excitation/emission) versus compound concentration or initial cell density.

E. coli C biofilm [7] = assay: Biofilm persistence assay with ampicillin (crystal violet); type: cell-based
Protocol: Biofilm persistence and viability were assessed with the hit compounds in combination with an antibiotic. It has been determined that sub-MICs (minimum inhibitory concentration) of antibiotic result in increased biofilm formation. Ampicillin was used in all of the assays due to its bactericidal effect. Sub-MIC concentrations of ampicillin were determined by growth measurements (OD600). […] Biofilm Persistence Assays with Ampicillin: Biofilms were grown for 24 or 48 h as described elsewhere herein. Planktonic cells were removed, and the biofilms were washed twice with 250 μL sterile PBS solution. Two hundred microliters of fresh LB medium with various concentrations of ampicillin were dispensed into the wells. After 18 h of incubation at 37° C., the volume of biofilm was measured by CV staining as described elsewhere herein.

[8] = system: (p)ppGpp production in E. coli C; assay: In vivo (p)ppGpp quantification in E. coli C (32P orthophosphate, serine hydroxamate, TLC); type: cell-based; settings: 20 μM compound
Protocol: In vivo (p)ppGpp Quantification: In vivo (p)ppGpp quantification was carried out. One milliliter of overnight cell culture of E. coli C was placed in 1.5-mL microcentrifuge tubes and pelleted. To this pellet was added 50 μL of a reaction mixture containing 20 μCi orthophosphoric acid and 40 μM serine hydroxamate in 1×MOPS minimal medium. The cell pellet was resuspended by gentle vortexing and placed in an incubator for 1 h. Cell growth arrest and cell lysis were completed by addition of 15 μL formic acid (88%). The lysate was then centrifuged to remove any insoluble components and the supernatant was spotted on a stationary-phase PEI-cellulose TLC plate. Plates were processed and analyzed as described elsewhere herein.

RelA enzyme [9] = target: T1, RelA enzyme; assay: In vitro (p)ppGpp quantification (RelA ppGpp production assay, [γ-32P]ATP, TLC); settings: 20 μM compound
Protocol: The direct (p)ppGpp detection in vivo and in vitro assays relied on different 32P radioactive nucleotides (γ-32P-ATP, α-32P-GTP) for use as substrates, and thin-layer chromatography (TLC) to separate the reaction products (stationary phase: polyethylenimine cellulose).
Both methods required TLC with a stationary phase of a polyethyleneimine (PEI)-cellulose plate and a mobile phase of 1 M potassium phosphate monobasic.
In vitro (p)ppGpp quantification: in vitro (p)ppGpp quantification was carried out. […] Roughly 0.4 μg of RelA protein was added to a 1.5-mL microcentrifuge tube containing a reaction mix composed of 1×PBS, 5 mM MgCl2, 0.5 mM ATP, 0.5 mM GTP, 0.5 mM GDP, and 20 μCi[γ-32P]ATP (3,000 Ci mmol-1; PerkinElmer) and varying concentrations of the compound of interest. These reactions were incubated at 37° C. for 1 h. The reactions were stopped by addition of 5 μL formic acid (88%). The reaction mixtures were then spotted on a stationary-phase polyethyleneimine (PEI)-cellulose TLC plate using potassium phosphate monobasic (1.5 M) as the mobile-phase. The plates were then dried, and the radiation levels were read using a Molecular Dynamics Storage Phosphor Screen. A Molecular Dynamics Storm 840 Phosphor imager Scanner was used to read the phosphor screen and ImageJ was used to process the images.

E. coli C [10] = assay: Cell growth curves (planktonic growth, OD600); settings: 30 μg·mL−1
Protocol: Cell Growth Curves: The effect of the hit compounds on bacterial growth was tested by adding compounds at multiple concentrations to the bacterial culture (100× diluted overnight culture; approximately 10^7 cells) in fresh LB medium. Two hundred microliters aliquots were pipetted into 96-well plates and placed into a Biotek HT or Tecan Infinite M200 Pro plate reader for 18 h at 37° C. Plates were shaken during incubation and the optical density (OD630 or OD600) was measured every 15 min.
The effect of the hit compounds on bacterial growth was tested by adding compounds at 200 μM (with DMSO control) to the bacterial culture (100× diluted overnight culture; approximately 10^7 cells) in fresh LB medium. Two hundred microliter aliquots were pipetted into 96-well plates, which were placed into a Biotek HT or Tecan Infinite M200 Pro plate reader for 18 h at 37° C. Plates were shaken during incubation and the optical density (OD630 or OD600) was measured every 15 min.

E. coli C biofilm [11] = assay: AlamarBlue viability assay of biofilm cells, compounds plus ampicillin; type: cell-based
Protocol: Synergistic Effects of Compounds and Antibiotics: Biofilms were grown for 24, 48, or 72 h as described elsewhere herein. Planktonic cells were then removed, and biofilms were washed twice with 250 μL sterile PBS solution. Two hundred microliter aliquots of fresh LB medium with multiple concentrations of the tested compounds and ampicillin were dispensed into the wells. After 18 h of incubation at 37° C., the biofilm mass was measured as described elsewhere herein. For the AlamarBlue viability test, 4 μL of AlamarBlue (Invitrogen) was added and plates were incubated in a Biotek HT plate reader at 37° C. for 4 h. Cell viability was measured as fluorescence at 530/590 nm (excitation/emission) versus compound concentration or initial cell density.

T1 sequence (P0AG20 whole entry): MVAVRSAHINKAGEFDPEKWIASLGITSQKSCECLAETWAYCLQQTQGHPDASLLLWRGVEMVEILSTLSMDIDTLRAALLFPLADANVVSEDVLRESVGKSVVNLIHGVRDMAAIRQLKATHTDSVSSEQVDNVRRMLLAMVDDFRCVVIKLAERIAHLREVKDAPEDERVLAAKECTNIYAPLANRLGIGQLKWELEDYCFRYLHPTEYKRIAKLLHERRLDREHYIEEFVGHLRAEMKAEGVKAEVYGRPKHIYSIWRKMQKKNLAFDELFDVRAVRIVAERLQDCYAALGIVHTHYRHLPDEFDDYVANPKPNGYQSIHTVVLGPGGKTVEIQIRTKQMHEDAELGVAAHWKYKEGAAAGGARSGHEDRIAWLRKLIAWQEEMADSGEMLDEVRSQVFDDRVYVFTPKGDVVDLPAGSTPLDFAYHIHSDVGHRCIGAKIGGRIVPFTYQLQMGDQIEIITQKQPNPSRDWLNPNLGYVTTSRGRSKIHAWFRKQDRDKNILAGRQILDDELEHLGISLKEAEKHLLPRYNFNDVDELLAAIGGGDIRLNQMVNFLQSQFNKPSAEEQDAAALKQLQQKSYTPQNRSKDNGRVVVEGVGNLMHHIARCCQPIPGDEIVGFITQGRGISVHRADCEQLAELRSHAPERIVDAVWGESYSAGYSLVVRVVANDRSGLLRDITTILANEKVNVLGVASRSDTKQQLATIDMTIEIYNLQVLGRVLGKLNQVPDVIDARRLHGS

In the case of `O=C(O)Cn1cc(C[C@H]2NC(=O)NC2=O)nn1` [Compound C14], the EC50 (Pseudomonas aeruginosa) is reported as 0.0395 µM and the IC50 (RelA enzyme [1]) is reported as 54 µM.
For `O=C(O)CCNC(=O)c1cccc(-n2cc(Br)cn2)c1` [Compound C22, 3-(3-(4-bromo-1H-pyrazol-1-yl)benzamido)propanoic acid], the “effect on pyocyanin production” value (P. aeruginosa PA14 [2]) was “produced an effect, it never reached the level of C14”, the “ppGpp production relative to the untreated control (set at 100%)” value (RelA enzyme [1]; 200 μM compound) was 13.4% and the IC50 (RelA enzyme [1]) was 93 µM. The “effect on biofilm formation” value (P. aeruginosa PA01) was “little effect”, the “E. coli C aggregation” value (E. coli C [3]) was “slightly absent” and the “biofilm formation compared to the DMSO control” value (P. aeruginosa PA14 [4]) was “reduced biofilm formation but not significantly”. The “effect on biofilm formation” value (E. coli C biofilm [5]) was “little effect”.
For IDR1018 [reference compound], the “reduction of biofilm biomass at Amp40” value (E. coli C biofilm [6]) was 75.4% and the “reduction in biofilm biomass at Amp50” value (E. coli C biofilm [6]) was 65.2%.
In the case of `CC1(C)S[C@@H]2[C@H](NC(=O)[C@H](N)c3ccccc3)C(=O)N2[C@H]1C(=O)O` [Ampicillin], the “ampicillin concentration with the highest biofilm biomass” value (E. coli C biofilm [7]) is reported as 80 µg/mL and the “effect on amount of biofilm” value (E. coli C biofilm [7]) is reported as “significantly increased the amount of biofilm”.
`CC(C)C(=O)Nc1nc2c(ncn2[C@H]2C[C@H](OC(=O)NCC(=O)NCC(=O)O)[C@@H](COC(=O)NCC(=O)NCC(=O)O)O2)c(=O)[nH]1` [Relacin, reference compound] was tested, and the “reduction in ppGpp production, in vivo assay” value [8] was “no effect” and the “reduction of ppGpp production compared to untreated sample, in vitro assay” value (RelA enzyme [9]) was 45.4%.
`O=C(N[C@H](C(=O)O)c1ccc(Cl)cc1)c1cc(-c2ccc(O)cc2)n[nH]1` [Compound S3-G1A, (S)-2-(4-chrlorphenyl)-2-(3-(4-hydroxyphenyl)-1H-pyrazole-5carboxamido) acetic acid] was tested, and the “effect on pyocyanin production” value (P. aeruginosa PA14 [2]) was “small effect”, the “reduction in ppGpp production, in vivo assay” value [8] was 31.4% and the “effect on planktonic growth rate / bacterial growth” value (E. coli C [10]) was “no effect”. For the same compound, the “reduction of biofilm biomass at Amp40” value (E. coli C biofilm [6]) was 97.9%, the “reduction in biofilm biomass at Amp50” value (E. coli C biofilm [6]) was 67.9% and the “reduction of ppGpp production compared to untreated sample, in vitro assay” value (RelA enzyme [9]) was 71.7%. The “reduction of cell viability (AlamarBlue) at Amp30” value (E. coli C biofilm [11]; ampicillin 30 μg·mL−1, compound 50 μM) was 55.4% and the “decrease of cell viability (AlamarBlue) at higher concentrations of antibiotic” value (E. coli C biofilm [11]; higher concentrations of ampicillin (not specified)) was 29.2%.
